Test results: patent US20240132464A1, “HETEROCYCLIC COMPOUNDS AS E3 LIGASE INHIBITORS” (Accutar Biotechnology Inc., priority 2022, published 2024)

Target: T1, GID4 (Uniprot ID: Q81VV7, residues 124-289) (Homo sapiens, UniProt Q8IVV7)
T1 construct: GID4 (Uniprot ID: Q81VV7, residues 124-289)
T1 sequence (Q8IVV7 124-289): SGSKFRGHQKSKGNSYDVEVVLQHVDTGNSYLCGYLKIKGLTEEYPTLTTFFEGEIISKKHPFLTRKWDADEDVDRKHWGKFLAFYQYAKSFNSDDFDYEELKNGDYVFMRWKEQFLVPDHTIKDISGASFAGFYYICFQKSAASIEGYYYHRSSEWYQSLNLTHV
Experiment: GID4 competitive binding assay (AlphaScreen, GID4/degron peptide PGLW)
Conditions: 24 nM GID4, 48 nM biotinylated degron peptide PGLW, 4° C., read-out: IC50 (Inhibition of GID4/Degron binding by test compounds)
Outline: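 Displacement of biotin-tagged degron tetrapeptide PGLW (48 nM) from C-terminally 6His-tagged GID4 124-289 (24 nM) read by AlphaScreen proximity signal. Compound incubation 2 h, then beads 1 h, all at 4 °C, pH 7.5, 2% DMSO final; background-corrected inhibition fitted with variable slope for IC50.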

Row | SMILES | IC50 [nM]
1 | Nc1nc(C2CC2)cc(N2CCNC(c3cnc4ccccn34)C2)n1 (single isomer, unassigned) [Compound 103, (S/R)-4-cyclopropyl-6-(3-(imidazo[1,2-a]pyridin-3-yl)piperazin-1-yl)pyrimidin-2-amine] | 500 to 5000
2 | Nc1nc(N2CCCC(c3ccn[nH]3)C2)c2[nH]cnc2n1 (stereo not shown) [Compound 207, 6-(3-(1H-pyrazol-5-yl)piperidin-1-yl)-7H-purin-2-amine] | > 5000
3 | Nc1nc(NCC2CC2)cc(N2CCN[C@@H](c3ccccc3Br)C2)n1 (racemic) [Compound 112, (S/R)-6-(3-(2-bromophenyl)piperazin-1-yl)-N4-(cyclopropylmethyl)pyrimidine-2,4-diamine] | < 500
4 | Nc1nc(N2CCN[C@@H](c3ccccc3Br)C2)c2cc[nH]c2n1 (racemic) [Compound 57, (S/R)-4-(3-(2-bromophenyl)piperazin-1-yl)-7H-pyrrolo[2,3-d]pyrimidin-2-amine] | 500 to 5000
5 | CNc1cc(N2CCNC(c3ccccc3Br)C2)nc(N)n1 (stereo not shown) [Compound 167] | < 500
6 | Nc1cc(N2CCN[C@@H](c3cc(C(F)(F)F)ccc3Br)C2)nc(N)n1 (racemic) [Compound 12, (S/R)-6-(3-(2-bromo-5-(trifluoromethyl)phenyl)piperazin-1-yl)pyrimidine-2,4-diamine] | < 500
7 | CNc1cc(N2CCNC(c3ccccc3)C2)nc(N)n1 (single isomer, unassigned) [Compound 128, (R/S)-N4-methyl-6-(3-phenylpiperazin-1-yl)pyrimidine-2,4-diamine] | > 5000
8 | Nc1nc(NC2CC2)nc(N2CCOC(c3ccccc3Br)C2)n1 (stereo not shown) [Compound 61, 6-(2-(2-bromophenyl)morpholino)-N2-cyclopropyl-1,3,5-triazine-2,4-diamine] | 500 to 5000
9 | CNc1cc(N2CCC[C@@H](c3ccccc3Br)C2)nc(N)n1 (stereo in doubt) [Compound 87, (S/R)-6-(3-(2-bromophenyl)piperidin-1-yl)-N4-methylpyrimidine-2,4-diamine] | < 500
10 | CNc1nc(C(C)C)cc(N2CCNC(c3ccccc3Br)C2)n1 (single isomer, unassigned) [Compound 152, (R/S)-4-(3-(2-bromophenyl)piperazin-1-yl)-6-isopropyl-N-methylpyrimidin-2-amine] | 500 to 5000
11 | CNc1cc(N2CCNC(c3cnc4ccccn34)C2)nc(N)n1 (stereo not shown) [Compound 92, 6-(3-(imidazo[1,2-a]pyridin-3-yl)piperazin-1-yl)-N4-methylpyrimidine-2,4-diamine] | 500 to 5000
12 | Nc1cc(N2CCCC(c3ncn4ccccc34)C2)nc(N)n1 (stereo not shown) [Compound 225, 6-(3-(imidazo[1,5-a]pyridin-1-yl)piperidin-1-yl)pyrimidine-2,4-diamine] | 500 to 5000
13 | Nc1cc(N2CCN(CCO)[C@@H](c3ccccc3Br)C2)nc(N)n1 (stereo in doubt) [Compound 66, (S/R)-2-(2-(2-bromophenyl)-4-(2,6-diaminopyrimidin-4-yl)piperazin-1-yl)ethan-1-ol] | > 5000
14 | CNc1nc(C)cc(Nc2cccc(-c3cnccn3)c2)n1 [Compound 190, N2,6-dimethyl-N4-(3-(pyrazin-2-yl)phenyl)pyrimidine-2,4-diamine] | > 5000
15 | CC(C)c1cc(N2CCNC(c3cc(C(=O)NCCN(C)C)ccc3Br)C2)nc(N)n1 (single isomer, unassigned) [Compound 20, R or S-3-(4-(2-amino-6-isopropylpyrimidin-4-yl)piperazin-2-yl)-4-bromo-N-(2-(dimethylamino)ethyl)benzamide] | 500 to 5000
16 | CN1CCN(c2cc(N)nc(NC3CC3)n2)CC1c1ccccc1Br (stereo not shown) [Compound 71, 6-(3-(2-bromophenyl)-4-methylpiperazin-1-yl)-N2-cyclopropylpyrimidine-2,4-diamine] | < 500
17 | c1ccn2c(C3CCCN(c4ccnc5[nH]cnc45)C3)cnc2c1 (stereo not shown) [Compound 62, 7-(3-(imidazo[1,2-a]pyridin-3-yl)piperidin-1-yl)-3H-imidazo[4,5-b]pyridine] | < 500
18 | CN(C)C(=O)CCC1CCCN(c2nc(N)nc3c2CCCN3)C1 (stereo not shown) [Compound 135, 3-(1-(2-amino-5,6,7,8-tetrahydropyrido[2,3-d]pyrimidin-4-yl)piperidin-3-yl)-N,N-dimethylpropanamide] | 500 to 5000
19 | Cc1cc(N2CCCC(Nc3ccc(=O)[nH]c3)C2)nc(N)n1 (stereo not shown) [Compound 202, 5-((1-(2-amino-6-methylpyrimidin-4-yl)piperidin-3-yl)amino)pyridin-2(1H)-one] | > 5000
20 | CN1CCN(C(=O)c2ccc(Br)c([C@H]3CN(c4cc(N)nc(N)n4)CCN3)c2)CC1 (racemic) [Compound 16, (S/R)-(4-bromo-3-(4-(2,6-diaminopyrimidin-4-yl)piperazin-2-yl)phenyl)(4-methylpiperazin-1-yl)methanone] | 500 to 5000
21 | Nc1nc2c(c(N3CCCC(c4ccn[nH]4)C3)n1)COCC2 (stereo not shown) [Compound 196, 4-(3-(1H-pyrazol-5-yl)piperidin-1-yl)-7,8-dihydro-5H-pyrano[4,3-d]pyrimidin-2-amine] | > 5000
22 | CC(C)c1cc(N2CCCC(c3cnc4ccccn34)C2)c2nc[nH]c2n1 (stereo not shown) [Compound 19, 7-(3-(imidazo[1,2-a]pyridin-3-yl)piperidin-1-yl)-5-isopropyl-3H-imidazo[4,5-b]pyridine] | < 500
23 | CC(C)c1cc(N2CCOC(c3cnc4ccccn34)C2)nc(N)n1 (single isomer, unassigned) [Compound 157, (S/R)-4-(2-(imidazo[1,2-a]pyridin-3-yl)morpholino)-6-isopropylpyrimidin-2-amine] | > 5000
24 | CC(C)c1cc(N2CCCC(c3ncn4ccccc34)C2)nc(N)n1 (stereo not shown) [Compound 235, 4-(3-(imidazo[1,5-a]pyridin-1-yl)piperidin-1-yl)-6-isopropylpyrimidin-2-amine] | < 500

Results, then the compound that gave them:

Row | IC50 [nM] | SMILES
25 | > 5000 | CN(C)CCNC(=O)c1c2cc(-c3ccc4ccnc(N)c4c3)ccc2nn1C [Compound 360, 5-(1-aminoisoquinolin-7-yl)-N-(2-(dimethylamino)ethyl)-2-methyl-2H-indazole-3-carboxamide]
26 | > 5000 | Nc1cc(N2CCCC(n3cnc4ccccc43)C2)nc(N)n1 (stereo not shown) [Compound 260, 6-(3-(1H-benzo[d]imidazol-1-yl)piperidin-1-yl)pyrimidine-2,4-diamine]
27 | 500 to 5000 | CN(C)CCCNC(=O)c1ccc2c(-c3ccc4ccnc(N)c4c3)csc2c1 [Compound 357, 3-(1-aminoisoquinolin-7-yl)-N-(3-(dimethylamino)propyl)benzo[b]thiophene-6-carboxamide]
28 | < 500 | CC(C)c1nc(N2CCCC(c3cnc4ccccn34)C2)c2nc[nH]c2n1 (stereo not shown) [Compound 376, 6-(3-(imidazo[1,2-a]pyridin-3-yl)piperidin-1-yl)-2-isopropyl-9H-purine]
29 | 500 to 5000 | CN(C)CCCNC(=O)N1CC=C(c2cc(O)c3ncccc3c2)CC1 [Compound 306, N-(3-(dimethylamino)propyl)-4-(8-hydroxyquinolin-6-yl)-3,6-dihydropyridine-1(2H)-carboxamide]
30 | 500 to 5000 | CC(C)c1cc(N2CCCC(c3cnc4c(F)cc(F)cn34)C2)nc(N)n1 (stereo not shown) [Compound 242, 4-(3-(6,8-difluoroimidazo[1,2-a]pyridin-3-yl)piperidin-1-yl)-6-isopropylpyrimidin-2-amine]
31 | 500 to 5000 | CN(C)CCCNC(=O)c1ccc(-c2cc(O)c3ncccc3c2)c(Br)c1 [Compound 323, 3-bromo-N-(3-(dimethylamino)propyl)-4-(8-hydroxyquinolin-6-yl)benzamide]
32 | > 5000 | Cn1nccc1-c1cc(N2CC3CCC(C2)N3)nc2c(-c3cc[nH]n3)nccc12 [Compound 364, 2-(3,8-diazabicyclo[3.2.1]octan-3-yl)-4-(1-methyl-1H-pyrazol-5-yl)-8-(1H-pyrazol-3-yl)-1,7-naphthyridine]
33 | < 500 | CN(C)CCCNC(=O)c1cnc(-c2cc(O)c3ncccc3c2)cn1 [Compound 276, N-(3-(dimethylamino)propyl)-5-(8-hydroxyquinolin-6-yl)pyrazine-2-carboxamide]
34 | < 500 | CC(C)c1cc(N2CCCC(c3cnn4ccccc34)C2)nc(N)n1 (stereo not shown) [Compound 240, 4-isopropyl-6-(3-(pyrazolo[1,5-a]pyridin-3-yl)piperidin-1-yl)pyrimidin-2-amine]
35 | < 500 | CC(C)c1nc(N2CCCC(c3cnc4ccccn34)C2)c2cc[nH]c2n1 (stereo not shown) [Compound 374, 4-(3-(imidazo[1,2-a]pyridin-3-yl)piperidin-1-yl)-2-isopropyl-7H-pyrrolo[2,3-d]pyrimidine]
36 | < 500 | CN(C)[C@H]1C[C@@H](NC(=O)c2csc(-c3cc(O)c4ncccc4c3)c2)C1 [Compound 264, N-(cis-3-(dimethylamino)cyclobutyl)-5-(8-hydroxyquinolin-6-yl)thiophene-3-carboxamide]
37 | < 500 | CN(C)CCCNC(=O)c1ccc(-c2cc(O)c3ncccc3c2)nc1 [Compound 294, N-(3-(dimethylamino)propyl)-6-(8-hydroxyquinolin-6-yl)nicotinamide]
38 | 500 to 5000 | CN(C)CCCNC(=O)C1CC=C(c2cc(O)c3ncccc3c2)CC1 (stereo not shown) [Compound 305, N-(3-(dimethylamino)propyl)-4-(8-hydroxyquinolin-6-yl)cyclohex-3-ene-1-carboxamide]
39 | < 500 | CN(C)CCCNC(=O)c1ccc(-c2cc3cccnc3c(O)c2Cl)cc1 [Compound 321, 4-(7-chloro-8-hydroxyquinolin-6-yl)-N-(3-(dimethylamino)propyl)benzamide]
40 | 500 to 5000 | Nc1cc(N2CCCC(c3n[nH]c4ccccc34)C2)nc(N)n1 (stereo not shown) [Compound 246, 6-(3-(1H-indazol-3-yl)piperidin-1-yl)pyrimidine-2,4-diamine]
